What was measured:
Type in all cases: cell-based, human
[1] = test system: paraxial mesoderm; assay: Paraxial mesoderm induction, marker expression; conditions: during induction of paraxial mesoderm
Experimental: All differentiation was conducted in serum-free CDM2 basal medium in monolayer feeder-free conditions. hPSCs were sparsely passaged ˜1:15-1:20 as fine clumps (using Accutase) onto Geltrex (Gibco)-coated cell culture wells and cultured overnight in mTeSR1+1 μM thiazovivin. The following morning, hPSCs were differentiated towards anterior PS (30 ng/mL Activin+4 μM CHIR+20 ng/mL FGF2+100 nM PIK90; for subsequent paraxial differentiation) or mid PS (30 ng/mL Activin+40 ng/mL BMP4+6 μM CHIR+20 ng/mL FGF2+[…] differentiation) for 24 hrs. D1 anterior PS→D2 paraxial mesoderm (1 μM A8301+3 μM CHIR+250 nM LDN193189+20 ng/mL FGF2) for 24 hrs. D1 mid PS→D2 lateral mesoderm (1 μM A8301+30 ng/mL BMP4+1 μM C59) for 24 hrs.
(§1) Subsequently, day 1 anterior primitive streak was briefly washed (DMEM/F12) and differentiated towards day 2 paraxial mesoderm for 24 hours (1 μM A-83-01+3 μM CHIR99021+250 nM LDN-193189+20 ng/mL FGF2). Separately, day 1 mid primitive streak was differentiated towards day 2 lateral mesoderm for 24 hours (1 μM A-83-01+30 ng/mL BMP4+1 μM C59; with 2 μM SB-505124 sometimes used instead of A-83-01).

[2] = test system: hESC-derived lateral mesoderm; assay: Lateral mesoderm patterning, qPCR
Experimental: as §1
C) To reveal the possible identity of non-cardiac mesoderm lineages that were contaminating cardiac mesoderm-containing cultures, NKX2.5-GFP hESCs were differentiated towards mid primitive streak (day 1) and were differentiated towards a heterogeneous population containing cardiac mesoderm (day 3) by treatment with SB-505124+BMP4+C59 (without FGF2) on days 2-3 of differentiation. FACS was performed on day 3 to purify either NKX2.5-GFP^+ or NKX2.5-GFP^− cells (top subpanels) which were sorted for qPCR (bottom subpanels). Gene expression was normalized to expression of a gene in the NKX2.5-GFP^+ fraction (dotted line). D) Timecourse of gene expression in hESCs differentiating towards mid primitive streak and lateral mesoderm, with treatment by SB-505124+BMP4+C59 on days 2-3 of differentiation. […] G) To assess whether a stabilized vitamin C analog (ascorbic acid-2-phosphate) (AA2P) enhanced cardiac mesoderm differentiation into cardiomyocytes, day 4 hESC-derived cardiac mesoderm was exposed to BMP4 (30 ng/mL)+XAV939 (1 μM) for 48 hours in the presence or absence of 200 μg/mL AA2P and qPCR was conducted of day 6 populations; qPCR data were normalized such that expression values in the highest-expressing sample was normalized=1.0. […] J) In the mouse embryo, endocardium (progenitors to heart-affiliated endothelium) are marked by transient coexpression of pan-heart marker Nkx2.5 together with endothelial markers (Ferdous et al., 2009; Stanley et al., 2002).

[3] = test system: lateral mesoderm; assay: Forelimb versus hindlimb progenitor specification from lateral mesoderm; conditions: day 2-3, in the context of BMP and WNT activation
[4] = test system: day 6 sclerotome; assay: Sclerotome differentiation towards cartilage
Experimental: Day 6 sclerotome was briefly washed (DMEM/F12) and treated with BMP4 (20 ng/mL) for 72-144 hours, leading to day 9 or day 12 cartilage-like progeny. Media was changed every 24 hours.
hPSC-derived cartilage progeny were stained with safranin-O to assess their production of acidic proteoglycans, which is a key trademark of cartilage phenotypic function. Safranin-O staining was conducted in accord with standard procedures. Namely, hPSC-derived cartilage progeny at day 12 of differentiation (day 6 sclerotome treated with chondrogenic BMP4 for 6 further days) were fixed (with 4% formaldehyde, for 10 minutes at room temperature), washed twice in PBS, briefly treated with 1M acetic acid for 15 seconds, stained with 1% safranin-O solution for 10 minutes, washed with PBS, and wide-field visualization was performed with a dissecting microscope (Leica M205 FA).
FIG. 11: A) To determine the length of time required for sclerotome differentiation, a qPCR timecourse was performed, encompassing undifferentiated hESCs (D0), day 2 hESC-derived paraxial mesoderm (D2 PXM), day 3 hESC-derived early somite progenitors, and hESC-derived day 3 early somite progenitors that were exposed to sclerotome inductive conditions (5 nM 21K+1 μM C59) for 24 or 48 hours. B) Description of EF1α-BCL2-T2A-GFP lentiviral construct (otherwise known as “C306”; top) and FACS plot of a stably-transduced polyclonal H9 hESC line with near-uniform expression of the BCL2-T2A-GFP transgene (green contour) by comparison to uncolored wild-type hESCs (bottom) (see above methods for details of derivation of the H9 BCL2-T2A-GFP hESC line). C) Higher-magnification picture of BCL2-T2A-GFP hESC-derived sclerotome ectopic bone grafts (originally described above in FIG. 4, panel E), showing that despite the near-ubiquitous expression of GFP throughout the ectopic bone graft (indicating its human provenance), the blood vessels are clearly GFP-negative and therefore presumably derived from the mouse host; scale bar=1 mm. […]

Cc1cnc(-c2cnc(NCCNc3ccc(C#N)cn3)nc2-c2ccc(Cl)cc2Cl)[nH]1 [CHIR99021, 6-[[2-[[4-(2,4-Dichlorophenyl)-5-(5-methyl-1H-imidazol-2-yl)-2-pyrimidinyl]amino]ethyl]amino]-3-pyridinecarbonitrile]
marker expression ([1]; at 4 μM): undesired decrease in marker expression
critical concentration [1]: less than 4 μM
lateral mesoderm fate (qPCR) ([2]; day 2 lateral mesoderm, SB-505124+BMP4 with CHIR99021 or C59, 24 hours): specified a posterior lateral mesoderm/forelimb bud fate (PRRX1)
pan-lateral mesoderm marker FOXF1 expression ([2]; last 12 hrs C59 or 3 μM CHIR in addition to BS): not markedly changed

B1: Activin: TGFβ agonist (protein, UniProt P08476 311-426, looked up)
Inhibin beta A chain: GLECDGKVNICCKKQFFVSFKDIGWNDWIIAPSGYHANYCEGECPSHIAGTSGSSLSFHSTVINHYRMRGHSPFANLKSCCVPTKLRPMSMLYYDDGQNIIKKDIQNMIVEECGCS
modifications: Inhibin beta A chain
notes: TGFβ agonist
hindlimb transcription factors TBX4 and PITX1 expression [3]: strongly induced the hindlimb transcription factors TBX4 and PITX1

B2: BMP4: BMP family ligand, BMP agonist (protein, UniProt P12644 293-408, looked up)
Bone morphogenetic protein 4: SPKHHSQRARKKNKNCRRHSLYVDFSDVGWNDWIVAPPGYQAFYCHGDCPFPLADHLNSTNHAIVQTLVNSVNSSIPKACCVPTELSAISMLYLDEYDKVVLKNYQEMVVEGCGCR
EPIPHYCAN and AGGRECAN expression (timecourse qPCR) ([4]; BMP4 20 ng/mL): only upregulated after prolonged BMP treatment
SOX9 expression (timecourse qPCR) ([4]; BMP4 20 ng/mL): rapidly downregulated
cartilage fate (COL2A1, AGGRECAN, EPIPHYCAN, COMP) ([4]; BMP4 for 3 further days, day 9): differentiated towards a cartilage fate
